US20210386754A1, “COMPOSITIONS AND METHODS FOR TREATING ATHEROSCLEROTIC VASCULAR DISEASE” (AUGUSTA UNIVERSITY RESEARCH INSTITUTE, INC., priority 2020, published 2021)
“Also recorded” adds a separate entry of the source.

Experiments:
THP-1 macrophages = test: Foam cell formation / nLDL macropinocytosis, Nile Red FACS; type: cell-based, human; conditions: for macropinocytosis of nLDL (Nile Red fluorescence): M-CSF 100 ng/mL, PDGF 200 ng/mL
Description: Flow cytometry experiments were performed using the BD Accuri C6 flow cytometer using a standard protocol.
Foam cell formation: THP-1 macrophages or bone marrow-derived macrophages were treated with vehicle, known macropinocytosis stimulators (PMA 1 μM, M-CSF 100 ng/mL or PDGF 200 ng/mL)+/− macropinocytosis inhibitors (imipramine 10 μM or EIPA 25 μM; 1 hour pre-incubation) in the presence of nLDL, ox-LDL, or ac-LDL ([…]) for 24 hours. Cells were fixed in 2% PFA and stained with Nile Red (50 ng/mL) for 7 min. Fluorescence intensity was measured using the FL3 channel for Nile Red (Ex: 488 nm, Em: 670 nm).

[1] = test system: lipopolysaccharide (LPS)-treated ApoE-/- mice; conditions: Zhao et al. 2012; cited from earlier work
[2] = test system: pre-hypertensive patients; conditions: amiloride monotherapy; independent of blood pressure lowering effect; cited from earlier work
[3] = cited from earlier work
[4] = test system: hypercholesterolemic mice (PCSK9-AAV-mediated LDLR knockdown); test: Atherosclerosis model: PCSK9-AAV, partial LCA ligation, Western diet; type: in vivo, mouse
Description: Mice were given a single injection of AAV-PCSK9 (1×1011 VG) and fed a Western diet (Envigo, TD.88137, Indianapolis, Ind.). One week after AAV-PCSK9 injection, mice underwent partial carotid ligation surgery as previously described (67) and Western diet was continued for another 3 weeks. In separate experiments, mice were given a single injection of AAV-PCSK9 (1×1011 VG) and fed a Western diet for 16 weeks. Mice were anesthetized (isoflurane inhalation, 3%) and exsanguinated. Blood was collected from left ventricle using a heparinized syringe fitted with a 21 G needle. Aortic arch and carotid arteries were collected, and gross macroscopic images were acquired. For molecular histology studies, carotids and aortic arch were fixed in 4% paraformaldehyde (PFA), embedded in OCT compound and stored at −80° C. until use.
ORO staining: Atherosclerosis development in carotid arteries and whole aorta were studied initially by gross imaging followed by Oil Red O (ORO) staining and plaque quantification. Briefly, the entire aorta was isolated, cleaned of peri-adventitial fat, fixed and imaged on the surface of black silicone-coated dissection dishes. Left carotid arteries were embedded in OCT and 10 μm thick cross-sections were prepared. The arteries were divided into 3 regions based on their distance from the aortic arch: proximal (0-400 μm), middle (2,000-2,400 μm) and distal (4,000-4,400 μm). Frozen sections and whole aortas were then stained with ORO solution (2%) and images were taken using light microscope equipped with a camera under 20× and 1.6× objective lens. The total area, lumen area and ORO positive area were measured for six sections/anatomical position per mouse using Image J software. The ratio of ORO positive area to arterial area is represented as plaque area. Plasma total cholesterol concentrations were determined by the Amplex™ Red Cholesterol Assay Kit (ThermoFisher, Rockford, Ill.). Plasma lipid profiles were obtained by column fractionation and measurements of fraction cholesterol content.
Hematoxylin and Eosin (H&E) or Masson's trichrome staining: Frozen sections were also used for Hematoxylin and Eosin (H&E) or Masson's trichrome staining following standard procedures to evaluate the lesion size and collagen content, respectively.
Orcein and Martius Scarlet Blue (OMSB) staining: OMSB was used for qualitative and quantitative analysis of atherosclerotic plaques as previously described. Briefly, left carotid arteries were dissected out, fixed in 4% buffered paraformaldehyde (pH=7.4) for at least 48 hr, and then routinely processed and embedded in paraffin (tissue processor TP1020; Leica, Wetzlar, Germany). Cross sections were cut every 5 m along the artery (starting from the proximal end) and mounted serially on silanized slides. Sections were stained and mounted automatically using Leica ST5010 Autostainer XL combined with Leica CV5030 Glass Coverslip. Deparaffinized sections through xylene and ethanol, and rehydrate to water. Postfix sections in Bouin's fixative at 56° C. for 1 hour, then rinse for 10 min in tap water to remove traces of picric acid. Stain with orcein for 20 min at 56° C. Differentiate in acidic alcohol for 2 min and then transfer to 96% ethanol for 30 s. Stain with martius yellow for 3 min and rinse in distilled water (2×2 min). Stain with crystal scarlet for 10 min. Differentiate with phosphotungstic acid 2 min and transfer to distilled water (for about 10 s). Stain with methyl blue 5 min. Rinse in acetic acid water 3 min, dehydrate through ethanol and carbol-xylene, clear in xylene, and mount in DPX or other resin. Staining of collagen with picrosirius red. The sections were examined and digital images of stained arteries were recorded using Olympus dotSlide system (Olympus, Tokyo, Japan). Segmentation algorithm allowed to distinguish vessel wall area, lumen area, plaque area, and area of the plaque occupied by collagen. The results were presented as areas of identified components in μm2. […]

[5] = test system: macropinocytosis in macrophages; test: Unbiased screen of FDA-approved drug library for inhibition of macrophage macropinocytosis; type: cell-based; conditions: screen of an FDA-approved drug library
[6] = imipramine-treated vs control mice

In the case of catalase, the “M-CSF- and PDGF-induced nLDL internalization” value (THP-1 macrophages; non-pegylated SOD 100 U/mL and/or catalase 250 U/mL, 1 hr pretreatment, 50 μg/mL nLDL, 24 hours) is reported as “did not inhibit”.

For `N=C(N)NC(=O)c1nc(Cl)c(N)nc1N` [amiloride], the lesion development [1] is given as “reduces” and the “pulse wave velocity (PWV)” value [2] is given as “improves”.

In the case of PDGF, the “macropinocytosis of nLDL (Nile Red fluorescence)” value (THP-1 macrophages) is reported as “stimulated”.

In the case of `CN(C)CCCN1c2ccccc2CCc2ccccc21` [imipramine], the oral bio-availability [3] is given as 95%, the “atherosclerotic lesion formation (OMSB staining)” value ([4]; imipramine 9 mg/mL, pump rate 0.11 μl/hour, sc, LDLR-knockdown mice, vs vehicle) is given as “significantly attenuates; also recorded: attenuated” and the “collagen area (collagen %)” value ([4]; imipramine sc vs vehicle) is given as “inhibited”. The “relative internal vessel area (IVA %)” value ([4]; imipramine sc vs vehicle) was “inhibited”, the blood pressure [4, 6] was “no significant differences” and the body weight [4, 6] was “no significant differences”. The fat mass [4, 6] was “no significant differences”, the “whole body fluid content” value [4, 6] was “no significant differences” and the IC50 [5] was 131 nM. For the same molecule, the “M-CSF- and PDGF-induced intracellular lipid accumulation following nLDL treatment (Nile Red)” value (THP-1 macrophages; imipramine 1 hour preincubation, 100 ng/mL M-CSF or 200 ng/mL PDGF, 50 μg/mL nLDL, 24 hours) was “inhibited”.

B1: M-CSF: macrophage colony-stimulating factor, physiological stimulator of macropinocytosis (protein, UniProt P09603 33-554, looked up)
Macrophage colony-stimulating …: EEVSEYCSHMIGSGHLQSLQRLIDSQMETSCQITFEFVDQEQLKDPVCYLKKAFLLVQDIMEDTMRFRDNTPNAIAIVQLQELSLRLKSCFTKDYEEHDKACVRTFYETPLQLLEKVKNVFNETKNLLDKDWNIFSKNCNNSFAECSSQDVVTKPDCNCLYPKAIPSSDPASVSPHQPLAPSMAPVAGLTWEDSEGTEGSSLLPGEQPLHTVDPGSAKQRPPRSTCQSFEPPETPVVKDSTIGGSPQPRPSVGAFNPGMEDILDSAMGTNWVPEEASGEASEIPVPQGTELSPSRPGGGSMQTEPARPSNFLSASSPLPASAKGQQPADVTGTALPRVGPVRPTGQDWNHTPQKTDHPSALLRDPPEPGSPRISSLRPQGLSNPSTLSAQPQLSRSHSSGSVLPLGELEGRRSTRDRRSPAEPEGGPASEGAARPLPRFNSVPLTDTGHERQSEGSFSPQLQESVFHLLVPSVILVLLAVGGLLFYRWRRRSHQEPQRADSPLEQPEGSPLTQDDRQVELPV
With B1 the “macropinocytosis of nLDL (Nile Red fluorescence)” value (THP-1 macrophages) was “stimulated”.
